Measured values reported in patent US20260285888A1, “HETEROCYCLIC COMPOUND AND USE THEREOF” (OTSUKA PHARMACEUTICAL CO., LTD., priority 2023, published 2026).

Key:
[1] = in vitro; format: cell-based, human; conditions: human, differentiated hl-60 cells, 300 μmol/L, about 24 hours, PMA-differentiated HL-60 cells, LDH; no-treatment 0%, cell lysis buffer 100%; read-out: cytotoxicity (%) Evaluation compound results
Procedure, shortened: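 HL-60 cells differentiated ~72 h with 10 nM PMA, then exposed ~24 h to compound at 300 μmol/L final in RPMI with 2% FBS. LDH release in supernatant gave cytotoxicity % scaled between untreated (0%) and lysis-buffer (100%) groups; triplicate.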

[2] = Study for confirmation of conversion to brexpiprazole in a buffer (stability of the evaluation compounds); format: physicochemical; conditions: in buffer, average of duplicate; for Concentration of brexpiprazole formed: 60-minute reaction sample; for Concentration of evaluation compound decreased: decrease in 60-minute vs 0-minute reaction sample
Procedure, shortened: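 Compounds (final 1 μmol/L, from 100 μmol/L working solutions) incubated in buffer at 37° C. for 0 or 60 min, in duplicate, after 3 min pre-incubation of the reaction solution. Reactions stopped with acetonitrile/isopropanol (4:1) containing internal standards; compound and formed brexpiprazole quantified against 0.01–1 μmol/L calibration samples.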

Compound | cytotoxicity at 24 h, 300 µM [1] [%] | Concentration of brexpiprazole formed [2] [nM] | Concentration of evaluation compound decreased [2] [nM]
CC1(C)O[C@H]2[C@@H](O1)[C@@H](COP(=O)([O-])OC[N+]1(CCCCOc3ccc4ccc(=O)[nH]c4c3)CCN(c3cccc4sccc34)CC1)O[C@@H]1OC(C)(C)O[C@@H]12 [EX 100, (4-(benzo[b]thiophen-4-yl)-1-(4-((2-oxo-1,2-dihydroquinolin-7-yl)oxy)butyl)piperazin-1-ium-1-yl)methyl (((3aR,5R,5aS,8aS,8bR)-2,2,7,7-tetramethyltetrahydro-5H-bis([1,3]dioxolo)[4,5-b:4′,5′-d]pyran-5-yl)methyl)phosphate] | -3 | 0 | 50
COCCOC(=O)OCOP(=O)([O-])OC[N+]1(CCCCOc2ccc3ccc(=O)[nH]c3c2)CCN(c2cccc3sccc23)CC1 [EX 33, (4-(benzo[b]thiophen-4-yl)-1-(4-((2-oxo-1,2-dihydroquinolin-7-yl)oxy)butyl)piperazin-1-ium-1-yl)methyl ((((2-methoxyethoxy)carbonyl)oxy)methyl) phosphate] | -7 | 0 | 0
O=c1ccc2ccc(OCCCC[N+]3(COP(=O)([O-])OCCN4CCC(F)(F)CC4)CCN(c4cccc5sccc45)CC3)cc2[nH]1 [EX 119, (4-(benzo[b]thiophen-4-yl)-1-(4-((2-oxo-1,2-dihydroquinolin-7-yl)oxy)butyl)piperazin-1-ium-1-yl)methyl (2-(4,4-difluoropiperidin-1-yl)ethyl) phosphate] | 2 | 0 | 140
COCCC(=O)OCOP(=O)([O-])OC[N+]1(CCCCOc2ccc3ccc(=O)[nH]c3c2)CCN(c2cccc3sccc23)CC1 [EX 28, (4-(benzo[b]thiophen-4-yl)-1-(4-((2-oxo-1,2-dihydroquinolin-7-yl)oxy)butyl)piperazin-1-ium-1-yl)methyl (((3-methoxypropanoyl)oxy)methyl) phosphate] | -8 | -10 | -70
O=C(OCOP(=O)([O-])OC[N+]1(CCCCOc2ccc3ccc(=O)[nH]c3c2)CCN(c2cccc3sccc23)CC1)C1CCOCC1 [EX 127, (4-(benzo[b]thiophen-4-yl)-1-(4-((2-oxo-1,2-dihydroquinolin-7-yl)oxy)butyl)piperazin-1-ium-1-yl)methyl (((tetrahydro-2H-pyran-4-carbonyl)oxy)methyl) phosphate] | 0 | 0 | 40
CCCC(C)(C)C(=O)OCOP(=O)([O-])OC[N+]1(CCCCOc2ccc3ccc(=O)[nH]c3c2)CCN(c2cccc3sccc23)CC1 [EX 123, (4-(benzo[b]thiophen-4-yl)-1-(4-((2-oxo-1.2-dihydroquinolin-7-yl)oxy)butyl)piperazin-1-ium-1-yl)methyl (((2,2-dimethylpentanoyl)oxy)methyl) phosphate] | -8 | 0 | -110
CCOC(=O)OCOP(=O)([O-])OC[N+]1(CCCCOc2ccc3ccc(=O)[nH]c3c2)CCN(c2cccc3sccc23)CC1 [EX 129, (4-(benzo[b]thiophen-4-yl)-1-(4-(((2-oxo-1,2-dihydroquinolin-7-yl)oxy)butyl)piperazin-1-ium-1-yl)methyl (((ethoxycarbonyl)oxy)methyl) phosphate] | -4 | 0 | 90
COCCCOP(=O)([O-])OC[N+]1(CCCCOc2ccc3ccc(=O)[nH]c3c2)CCN(c2cccc3sccc23)CC1 [EX 49, (4-(benzo[b]thiophen-4-yl)-1-(4-((2-oxo-1,2-dihydroquinolin-7-yl)oxy)butyl)piperazin-1-ium-1-yl)methyl (3-methoxypropyl) phosphate] | -7 | 0 | 50
O=c1ccc2ccc(OCCCC[N+]3(COP(=O)([O-])OCCCCCCl)CCN(c4cccc5sccc45)CC3)cc2[nH]1 [EX 113, (4-(benzo[b]thiophen-4-yl)-1-(4-((2-oxo-1,2-dihydroquinolin-7-yl)oxy)butyl)piperazin-1-ium-1-yl)methyl (5-chloropentyl) phosphate] | 10 | 0 | 160
CCOC(=O)CCOC(=O)OCOP(=O)([O-])OC[N+]1(CCCCOc2ccc3ccc(=O)[nH]c3c2)CCN(c2cccc3sccc23)CC1 [EX 143, (4-(benzo[b]thiophen-4-yl)-1-(4-((2-oxo-1,2-dihydroquinolin-7-yl)oxy)butyl)piperazin-1-ium-1-yl)methyl ((((3-ethoxy-3-oxopropoxy)carbonyl)oxy)methyl) phosphate] | -5 | 0 | 50
CCNP(=O)([O-])OC[N+]1(CCCCOc2ccc3ccc(=O)[nH]c3c2)CCN(c2cccc3sccc23)CC1 [EX 151, (4-(benzo[b]thiophen-4-yl)-1-(4-((2-oxo-1,2-dihydroquinolin-7-yl)oxy)butyl)piperazin-1-ium-1-yl)methyl ethylphosphoramidate] | -6 | 0 | -10
CCCCOCCOP(=O)([O-])OC[N+]1(CCCCOc2ccc3ccc(=O)[nH]c3c2)CCN(c2cccc3sccc23)CC1 [EX 96, (4-(benzo[b]thiophen-4-yl)-1-(4-((2-oxo-1,2-dihydroquinolin-7-yl)oxy)butyl)piperazin-1-ium-1-yl)methyl (2-butoxyethyl) phosphate] | 12 | 0 | 30
COCCOCCOCCOC(=O)OCOP(=O)([O-])OC[N+]1(CCCCOc2ccc3ccc(=O)[nH]c3c2)CCN(c2cccc3sccc23)CC1 [EX 35, (4-(benzo[b]thiophen-4-yl)-1-(4-((2-oxo-1,2-dihydroquinolin-7-yl)oxy)butyl)piperazin-1-ium-1-yl)methyl (3-oxo-2,4,7,10,13-pentaoxatetradecyl) phosphate] | -9 | 0 | -20
O=c1ccc2ccc(OCCCC[N+]3(COP(=O)([O-])OCCCCCO)CCN(c4cccc5sccc45)CC3)cc2[nH]1 [EX 92] | -7 | 0 | 110
O=C(CCO)OCOP(=O)([O-])OC[N+]1(CCCCOc2ccc3ccc(=O)[nH]c3c2)CCN(c2cccc3sccc23)CC1 [EX 125, (4-(benzo[b]thiophen-4-yl)-1-(4-((2-oxo-1,2-dihydroquinolin-7-yl)oxy)butyl)piperazin-1-ium-1-yl)methyl (((3-hydroxypropanoyl)oxy)methyl) phosphate] | -7 | 0 | 130
C[C@@H](OP(=O)([O-])OC[N+]1(CCCCOc2ccc3ccc(=O)[nH]c3c2)CCN(c2cccc3sccc23)CC1)C(=O)OC(C)(C)C [EX 106, (R)-(4-(benzo[b]thiophen-4-yl)-1-(4-((2-oxo-1.2-dihydroquinolin-7-yl)oxy)butyl)piperazin-1-ium-1-yl)methyl (1-(tert-butoxy)-1-oxopropan-2-yl) phosphate] | 10 | 0 | 70
CCOC(=O)C(CC)OP(=O)([O-])OC[N+]1(CCCCOc2ccc3ccc(=O)[nH]c3c2)CCN(c2cccc3sccc23)CC1 (stereo not drawn) [EX 110, (4-(benzo[b]thiophen-4-yl)-1-(4-((2-oxo-1,2-dihydroquinolin-7-yl)oxy)butyl)piperazin-1-ium-1-yl)methyl (1-ethoxy-1-oxobutan-2-yl) phosphate] | -3 | 0 | 70
COCCCCOC(=O)OCOP(=O)([O-])OC[N+]1(CCCCOc2ccc3ccc(=O)[nH]c3c2)CCN(c2cccc3sccc23)CC1 [EX 36, (4-(benzo[b]thiophen-4-yl)-1-(4-((2-oxo-1,2-dihydroquinolin-7-yl)oxy)butyl)piperazin-1-ium-1-yl)methyl ((((4-methoxybutoxy)carbonyl)oxy)methyl) phosphate] | -10 | 0 | -40
COCCOC(=O)CCCCCCCCCCC(=O)OCOP(=O)([O-])OC[N+]1(CCCCOc2ccc3ccc(=O)[nH]c3c2)CCN(c2cccc3sccc23)CC1 [EX 77, (4-(benzo[b]thiophen-4-yl)-1-(4-((2-oxo-1,2-dihydroquinolin-7-yl)oxy)butyl)piperazin-1-ium-1-yl)methyl (((12-(2-methoxyethoxy)-12-oxododecanoyl)oxy)methyl) phosphate] | 6 | 0 | 110
CC(C)COCCOP(=O)([O-])OC[N+]1(CCCCOc2ccc3ccc(=O)[nH]c3c2)CCN(c2cccc3sccc23)CC1 [EX 51, (4-(benzo[b]thiophen-4-yl)-1-(4-((2-oxo-1,2-dihydroquinolin-7-yl)oxy)butyl)piperazin-1-ium-1-yl)methyl (2-isobutoxyethyl) phosphate] | -9 | 0 | 50
